# What was measured:
# caspase 3 = experiment: ELISA assay of caspase 3 activity in cultured hippocampal slices; assay type: cell-based; conditions: slices cultured 12 days, treated 6 days
# Protocol: Hippocampal slices were cultured for 12 days and incubated with vehicle alone, ZPAD, or chloroquine (CQN; a lysosomal inhibitor) for 6 days (FIG. 28). Cultures were then homogenized, and subjected to an ELISA assay to detect the activity of caspase 3, an apoptotic protease.
# basophilic granules = experiment: Semithin section histology (toluidine blue) of cultured mouse hippocampal slices; assay type: cell-based; conditions: 20 μM ZPAD, six days; wild-type and apoE-deficient slices
# Protocol: To prepare semithin sections, control and treated slices from both wild-type and apoE-deficient mice were fixed in a solution of 0.1M phosphate buffer (“PB”; pH 7.2), containing 1.5% paraformaldehyde and 1.5% glutaraldehyde. After a period of two to three hours, the solution was removed and the slices were rinsed three times in phosphate buffered saline (“PBS”; 50 mM phosphate buffer, 0.9% NaCl, pH 7.3). At this time, slices were postfixed in 2% osmium tetroxide in PB for one hour, dehydrated in a series of alcohols and embedded in Polybed-812. Semithin (1 μm thick) sections were cut on a Sorvall Porter-Blum ultramicrotome and stained with a solution of 0.1% toluidine blue. Digitized images were imported using a Sony DKC-5000 camera attached to a Zeiss microscope and processed using Adobe Photoshop™.
substance,measurement,setting,value
N-CBZ-L-phenylalanyl-L-alanine-diazomethyl-ketone [ZPAD],activity of caspase 3,caspase 3,marked increase
same,number of basophilic granules (lysosomes),basophilic granules,increase in the number of basophilic granules
